Assays:
Test in all cases: relative viability (nuclei count vs DMSO), 5 days (fraction); higher = more cells survive
[1] = tested on: NCI-H522
How it was run: (§1)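 Relative viability was taken as the ratio of nuclei in treated wells to nuclei in vehicle wells. Lung cancer cell lines in 1536-well plates received compounds by pin tool one day after seeding, either one drug alone or a fixed anchor-drug dose plus five library-drug doses (not always all listed) in √10 steps. Nuclei were counted on 4× images after 5 days of treatment, and values are medians of duplicate plates.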

[2] = tested on: NCI-H1623
How it was run: as §1

[3] = tested on: SW 900
How it was run: as §1

[4] = tested on: NCI-H2342
How it was run: as §1

[5] = tested on: NCI-H1648
How it was run: as §1

[6] = tested on: NCI-H1563
How it was run: as §1

[7] = tested on: A549
How it was run: as §1

[8] = tested on: NCI-H1703
How it was run: as §1

[9] = tested on: EBC-1
How it was run: as §1

[10] = tested on: IA-LM
How it was run: as §1

[11] = tested on: Calu-6
How it was run: as §1

[12] = tested on: NCI-H1299
How it was run: as §1

SMILES: O=c1[nH]c2ccccc2n1C1CCN(CCCC(c2ccc(F)cc2)c2ccc(F)cc2)CC1 [Pimozide] + Cc1cc(Nc2cc(N3CCN(C)CC3)nc(Sc3ccc(NC(=O)C4CC4)cc3)n2)n[nH]1 [Tozasertib] (partner 0.1 µM)
- relative viability ([1]; first compound 0.08 µM): 0.509
- relative viability ([1]; first compound 0.253 µM): 0.47
- relative viability ([1]; first compound 0.8 µM): 0.573
- relative viability ([1]; first compound 2.53 µM): 0.485
- relative viability ([1]; first compound 8 µM): 0.525
- relative viability ([2]; first compound 0.253 µM): 0.439
- relative viability ([2]; first compound 0.8 µM): 0.375
- relative viability ([2]; first compound 2.53 µM): 0.456
- relative viability ([2]; first compound 8 µM): 0.39
- relative viability ([3]; first compound 0.08 µM): 0.633
- relative viability ([3]; first compound 0.253 µM): 0.606
- relative viability ([3]; first compound 0.8 µM): 0.54
- relative viability ([3]; first compound 2.53 µM): 0.618
- relative viability ([3]; first compound 8 µM): 0.563
- relative viability ([4]; first compound 0.08 µM): 0.51
- relative viability ([4]; first compound 0.253 µM): 0.517
- relative viability ([4]; first compound 0.8 µM): 0.505
- relative viability ([4]; first compound 2.53 µM): 0.488
- relative viability ([4]; first compound 8 µM): 0.576
- relative viability ([5]; first compound 0.08 µM): 0.574
- relative viability ([5]; first compound 0.253 µM): 0.398
- relative viability ([5]; first compound 0.8 µM): 0.353
- relative viability ([5]; first compound 8 µM): 0.53

SMILES: O=C(O)CCCCC(CCSCc1ccccc1)SCc1ccccc1 (stereo not drawn) [CPI-613] + COc1cccc2cc(-c3nc([C@H]4CC[C@H](C(=O)O)CC4)n4ncnc(N)c34)[nH]c12 [OSI-027] (partner 0.5 µM)
- relative viability ([1]; first compound 5 µM): 0.706
- relative viability ([1]; first compound 15.81 µM): 0.747
- relative viability ([1]; first compound 50 µM): 0.7
- relative viability ([1]; first compound 158.11 µM): 0.612
- relative viability ([1]; first compound 500 µM): 0.467
- relative viability ([6]; first compound 5 µM): 0.76
- relative viability ([6]; first compound 15.81 µM): 0.652
- relative viability ([6]; first compound 50 µM): 0.814
- relative viability ([6]; first compound 158.11 µM): 0.52
- relative viability ([6]; first compound 500 µM): 0.223
- relative viability ([2]; first compound 5 µM): 0.431
- relative viability ([2]; first compound 15.81 µM): 0.436
- relative viability ([2]; first compound 50 µM): 0.438
- relative viability ([2]; first compound 158.11 µM): 0.368
- relative viability ([2]; first compound 500 µM): 0.408
- relative viability ([3]; first compound 5 µM): 0.44
- relative viability ([3]; first compound 15.81 µM): 0.547
- relative viability ([3]; first compound 50 µM): 0.65
- relative viability ([3]; first compound 158.11 µM): 0.245
- relative viability ([3]; first compound 500 µM): 0.0283
- relative viability ([4]; first compound 5 µM): 0.568
- relative viability ([4]; first compound 15.81 µM): 0.572
- relative viability ([4]; first compound 50 µM): 0.643
- relative viability ([4]; first compound 158.11 µM): 0.552
- relative viability ([4]; first compound 500 µM): 0.643
- relative viability ([5]; first compound 5 µM): 0.273
- relative viability ([5]; first compound 15.81 µM): 0.241
- relative viability ([5]; first compound 50 µM): 0.22
- relative viability ([5]; first compound 500 µM): 0.203

SMILES: O=C(O)CCCCC(CCSCc1ccccc1)SCc1ccccc1 (stereo not drawn) [CPI-613] + N=C(N)NC(=N)NCCc1ccccc1 [Phenformin] (partner 250 µM)
- relative viability ([1]; first compound 5 µM): 0.681
- relative viability ([1]; first compound 15.81 µM): 0.672
- relative viability ([1]; first compound 50 µM): 0.625
- relative viability ([1]; first compound 158.11 µM): 0.588
- relative viability ([1]; first compound 500 µM): 0.399
- relative viability ([6]; first compound 5 µM): 0.638
- relative viability ([6]; first compound 15.81 µM): 0.588
- relative viability ([6]; first compound 50 µM): 0.637
- relative viability ([6]; first compound 158.11 µM): 0.503
- relative viability ([6]; first compound 500 µM): 0.27
- relative viability ([2]; first compound 5 µM): 0.63
- relative viability ([2]; first compound 15.81 µM): 0.565
- relative viability ([2]; first compound 50 µM): 0.573
- relative viability ([2]; first compound 158.11 µM): 0.488
- relative viability ([2]; first compound 500 µM): 0.551
- relative viability ([7]; first compound 5 µM): 0.162
- relative viability ([7]; first compound 15.81 µM): 0.172
- relative viability ([7]; first compound 50 µM): 0.178
- relative viability ([7]; first compound 158.11 µM): 0.131
- relative viability ([7]; first compound 500 µM): 0.107
- relative viability ([3]; first compound 5 µM): 0.579
- relative viability ([3]; first compound 15.81 µM): 0.542
- relative viability ([3]; first compound 50 µM): 0.4
- relative viability ([3]; first compound 158.11 µM): 0.305
- relative viability ([3]; first compound 500 µM): 0.03
- relative viability ([4]; first compound 5 µM): 0.636
- relative viability ([4]; first compound 15.81 µM): 0.589
- relative viability ([4]; first compound 50 µM): 0.586
- relative viability ([4]; first compound 158.11 µM): 0.487
- relative viability ([4]; first compound 500 µM): 0.638

SMILES: O=C(O)CCCCC(CCSCc1ccccc1)SCc1ccccc1 (stereo not drawn) [CPI-613] + COc1cc2c(Oc3ccc(NC(=O)C4(C(=O)Nc5ccc(F)cc5)CC4)cc3F)ccnc2cc1OCCCN1CCOCC1 [Foretinib] (partner 0.25 µM)
- relative viability ([6]; first compound 5 µM): 0.957
- relative viability ([6]; first compound 15.81 µM): 0.896
- relative viability ([6]; first compound 50 µM): 0.892
- relative viability ([6]; first compound 158.11 µM): 0.665
- relative viability ([6]; first compound 500 µM): 0.231
- relative viability ([2]; first compound 5 µM): 0.845
- relative viability ([2]; first compound 15.81 µM): 0.921
- relative viability ([2]; first compound 50 µM): 0.972
- relative viability ([2]; first compound 158.11 µM): 0.59
- relative viability ([2]; first compound 500 µM): 0.831
- relative viability ([7]; first compound 5 µM): 0.942
- relative viability ([7]; first compound 15.81 µM): 0.829
- relative viability ([7]; first compound 50 µM): 0.848
- relative viability ([7]; first compound 158.11 µM): 0.944
- relative viability ([7]; first compound 500 µM): 0.641
- relative viability ([3]; first compound 5 µM): 0.743
- relative viability ([3]; first compound 15.81 µM): 0.776
- relative viability ([3]; first compound 50 µM): 0.792
- relative viability ([3]; first compound 158.11 µM): 0.418
- relative viability ([3]; first compound 500 µM): 0.0443
- relative viability ([4]; first compound 5 µM): 1.04
- relative viability ([4]; first compound 15.81 µM): 0.978
- relative viability ([4]; first compound 50 µM): 1.04
- relative viability ([4]; first compound 158.11 µM): 1.12
- relative viability ([4]; first compound 500 µM): 1.05
- relative viability ([8]; first compound 5 µM): 0.442
- relative viability ([8]; first compound 15.81 µM): 0.353
- relative viability ([8]; first compound 158.11 µM): 0.331
- relative viability ([8]; first compound 500 µM): 0.33
- relative viability ([9]; first compound 5 µM): 0.0958
- relative viability ([9]; first compound 15.81 µM): 0.0971
- relative viability ([9]; first compound 50 µM): 0.0899
- relative viability ([9]; first compound 158.11 µM): 0.0957
- relative viability ([9]; first compound 500 µM): 0.0975
- relative viability ([10]; first compound 5 µM): 1.12
- relative viability ([10]; first compound 15.81 µM): 1.16
- relative viability ([10]; first compound 50 µM): 1.13
- relative viability ([10]; first compound 158.11 µM): 0.933
- relative viability ([10]; first compound 500 µM): 0.872
- relative viability ([11]; first compound 5 µM): 0.872
- relative viability ([11]; first compound 15.81 µM): 0.848
- relative viability ([11]; first compound 50 µM): 0.865
- relative viability ([11]; first compound 158.11 µM): 0.769
- relative viability ([11]; first compound 500 µM): 0.675
- relative viability ([12]; first compound 5 µM): 1.03
- relative viability ([12]; first compound 15.81 µM): 1.04
- relative viability ([12]; first compound 50 µM): 1.1
- relative viability ([12]; first compound 158.11 µM): 1.08
- relative viability ([12]; first compound 500 µM): 1.14

SMILES: Cc1cnc(-c2cnc(NCCNc3ccc(C#N)cn3)nc2-c2ccc(Cl)cc2Cl)[nH]1 + N=C(N)NC(=N)NCCc1ccccc1 [Phenformin] (partner 250 µM)
- relative viability ([1]; first compound 0.08 µM): 0.639
- relative viability ([1]; first compound 0.253 µM): 0.707
- relative viability ([1]; first compound 0.8 µM): 0.65
- relative viability ([1]; first compound 2.53 µM): 0.666
- relative viability ([6]; first compound 0.08 µM): 0.649
- relative viability ([6]; first compound 0.253 µM): 0.647
- relative viability ([6]; first compound 0.8 µM): 0.636
- relative viability ([6]; first compound 2.53 µM): 0.635
- relative viability ([2]; first compound 0.08 µM): 0.527
- relative viability ([2]; first compound 0.253 µM): 0.503
- relative viability ([2]; first compound 0.8 µM): 0.581
- relative viability ([2]; first compound 2.53 µM): 0.589
- relative viability ([7]; first compound 0.08 µM): 0.168
- relative viability ([7]; first compound 0.253 µM): 0.154
- relative viability ([7]; first compound 0.8 µM): 0.151
- relative viability ([7]; first compound 2.53 µM): 0.154
- relative viability ([3]; first compound 0.08 µM): 0.771
- relative viability ([3]; first compound 0.253 µM): 0.588
- relative viability ([3]; first compound 0.8 µM): 0.644
- relative viability ([3]; first compound 2.53 µM): 0.391
- relative viability ([4]; first compound 0.08 µM): 0.622
- relative viability ([4]; first compound 0.8 µM): 0.635
- relative viability ([4]; first compound 2.53 µM): 0.577

SMILES: O=C(O)CCCCC(CCSCc1ccccc1)SCc1ccccc1 (stereo not drawn) [CPI-613] + Cc1cc(Nc2cc(N3CCN(C)CC3)nc(Sc3ccc(NC(=O)C4CC4)cc3)n2)n[nH]1 [Tozasertib] (partner 0.1 µM)
- relative viability ([1]; first compound 5 µM): 0.512
- relative viability ([1]; first compound 15.81 µM): 0.563
- relative viability ([1]; first compound 50 µM): 0.573
- relative viability ([1]; first compound 158.11 µM): 0.419
- relative viability ([1]; first compound 500 µM): 0.325
- relative viability ([2]; first compound 5 µM): 0.442
- relative viability ([2]; first compound 15.81 µM): 0.387
- relative viability ([2]; first compound 50 µM): 0.421
- relative viability ([2]; first compound 158.11 µM): 0.417
- relative viability ([2]; first compound 500 µM): 0.426
- relative viability ([3]; first compound 5 µM): 0.511
- relative viability ([3]; first compound 15.81 µM): 0.557
- relative viability ([3]; first compound 50 µM): 0.473
- relative viability ([3]; first compound 158.11 µM): 0.199
- relative viability ([3]; first compound 500 µM): 0.0732
- relative viability ([4]; first compound 5 µM): 0.523
- relative viability ([4]; first compound 15.81 µM): 0.527
- relative viability ([4]; first compound 50 µM): 0.511
- relative viability ([4]; first compound 158.11 µM): 0.484
- relative viability ([4]; first compound 500 µM): 0.625
- relative viability ([5]; first compound 5 µM): 0.473
- relative viability ([5]; first compound 15.81 µM): 0.312
- relative viability ([5]; first compound 50 µM): 0.589
- relative viability ([5]; first compound 500 µM): 0.391

Source: the supplement of paper PMC10307832
